{
  "source": "patent US7470714B2",
  "about": "“GM-95-containing antitumor effect potentiator, combined antitumor preparation and antitumor agent” (Sosei Co., Ltd., priority 2003, dated 2008)",
  "key": {"K562 cells": {"tested_on": "K562 cells", "assay": "Apoptosis induction into K562 cells by combined use, flow cytometry with APO 2.7 antibody", "format": "cell-based", "conditions": "K562 cells cultured 10 days with 2 μM Telomestatin, then 72 hours with the antitumor substance", "method": "K562 cells (available from ATCC (Rockville, Md.)) were cultured for 10 days in the presence of 2 μM Telomestatin (GM-95 substance). Subsequently, the Telomestatin-treated K562 cells were incubated for 72 hours together with Imanitib, Daunorubicin (DNR), Mitoxantrone (MIT), or Vincristine (VCR). The expression of apoptosis was measured by flow cytometric analysis using an FITC conjugate APO 2.7 monoclonal antibody (which is generated to a mitochondrial membrane protein (7A6 antigen) and is expressed in cells wherein apoptosis takes place). In the figures, the terms “control,” “TMS,” “Imanitib,” “DNR,” “MIT,” and “VCR” represent a control substance, the GM-95 substance (Telomestatin), Imanitib, Daunorubicin, Mitoxantrone, and Vincristine, respectively."}, "MCF-7 cells": {"tested_on": "MCF-7 cells", "assay": "Combined use of GM-95 substance with another antitumor substance, survival rate by MTT method", "format": "cell-based", "conditions": "1 μM or 2 μM GM-95 for 7 or 14 days, then 2 days with antitumor substance", "method": "Tumor cells were cultured under the conditions described below using the GM-95 substance and another antitumor substance in the same manner as in Example 5. After a certain period of time had passed, the survival rate of the tumor cells was measured.\nMCF-7 cells were used as tumor cells. In the following experiments, the tumor cells were cultured in a medium formed by adding 10% FBS to DMEM (SIGMA, D6046) using a CO2 incubator (temperature: 37° C.; humidity: 100%; CO2 concentration: 5%).\nMCF-7 cells were cultured under conditions described in the following (D) and (E). After completion of the culture, the survival rate of the tumor cells was measured by the MTT method. • (D): The tumor cells were previously cultured for 7 days together with 1 μM or 2 μM GM-95 substance. Thereafter, each of the aforementioned antitumor substances with a certain concentration was added to the cells in the absence of the GM-95 substance, followed by culture for 2 days. After completion of the culture, the survival rate of the tumor cells was measured. • (E): The tumor cells were previously cultured for 14 days together with 1 μM or 2 μM GM-95 substance. […] After completion of the culture, the survival rate of the tumor cells was measured. […]"}, "HT1080 cells": {"tested_on": "HT1080 cells", "assay": "Combined use of GM-95 substance with another antitumor substance, survival rate by MTT method", "format": "cell-based", "method": "Tumor cells were cultured under the conditions described below using the GM-95 substance and another antitumor substance in the same manner as in Example 3. After a certain period of time had passed, the survival rate of the tumor cells was measured.\nHT1080 cells were used as tumor cells. In the following experiments, the tumor cells were cultured in a medium formed by adding 10% FBS to RPMI1640 (SIGMA, R8758) using a CO2 incubator (temperature: 37° C.; humidity: 100%; CO2 concentration: 5%).\nHT1080 cells were cultured under conditions described in the following (A) to (C). After completion of the culture, the survival rate of the tumor cells was measured by the MTT method. • (A): 0.5 μM GM-95 substance and each of the aforementioned antitumor substances with a certain concentration were simultaneously added to the HT1080 cells, and the tumor cells were then cultured for 2 days. After completion of the culture, the survival rate of the tumor cells was measured. • (B): The tumor cells were previously cultured for 7 days together with 0.5 μM or 1 μM GM-95 substance. […] After completion of the culture, the survival rate of the tumor cells was measured. • (C): The tumor cells were previously cultured for 7 or 14 days together with 0.5 μM or 1 μM GM-95 substance. […] After completion of the culture, the survival rate of the tumor cells was measured. […]"}, "[1]": {"tested_on": "several types of cancer cells", "assay": "Action of the GM-95 substance on several types of cancer cells", "format": "cell-based", "method": "The inventors have already reported the details thereof (refer to International Publication WO00/24747, for example). The GM-95 substance is the strongest telomerase inhibitor among telomerase inhibitors including synthetic compounds that have been reported to date. The action of the GM-95 substance on several types of cancer cells was analyzed. […] In addition, the aged cells had lost their tumorigenicity."}, "Solubility in solvents": {"assay": "Solubility in solvents", "format": "physicochemical"}},
  "data": [
    {"smiles": "COc1cccc2c1C(=O)c1c(O)c3c(c(O)c1C2=O)C[C@@](O)(C(C)=O)C[C@@H]3O[C@H]1C[C@H](N)[C@H](O)[C@H](C)O1", "note": "[Daunorubicin]", "values": [
      {"measurement": "Effect of inducing apoptosis by combined use of Telomestatin with another antitumor substance", "setting": "K562 cells", "result": "act synergistically"}
    ]},
    {"smiles": "Cc1oc2nc1-c1nc(co1)-c1nc(co1)-c1nc(co1)-c1nc(co1)-c1nc(co1)C1=NC(CS1)c1nc-2c(C)o1", "note": "(stereo not drawn) [GM-95]", "values": [
      {"measurement": "Antitumor action by combined use of the GM-95 substance with another antitumor substance (survival rate)", "setting": "MCF-7 cells", "result": "enhanced"},
      {"measurement": "Antitumor action by combined use of the GM-95 substance with another antitumor substance (survival rate)", "setting": "HT1080 cells; HT1080, 0.5 μM or 1 μM GM-95, simultaneous or 7 or 14 days pre-treatment, then 2 days with antitumor substance", "result": "enhanced"},
      {"measurement": "Number of surviving cells", "setting": "HT1080 cells; HT1080 cultured for 14 days in the presence of 1 μM GM-95 substance", "result": "very small"},
      {"measurement": "Induction of aging of cells attended with telomere shortening", "setting": "[1]", "result": "induces the aging of cells"},
      {"measurement": "Effect of inducing apoptosis by combined use of Telomestatin with another antitumor substance", "setting": "K562 cells", "result": "act synergistically"},
      {"measurement": "Solubility in acetone", "setting": "Solubility in solvents; acetone", "result": "insoluble"},
      {"measurement": "Solubility in a mixture consisting of chloroform and methanol (1:1)", "setting": "Solubility in solvents; chloroform and methanol (1:1)", "result": "soluble"},
      {"measurement": "Solubility in water", "setting": "Solubility in solvents; water", "result": "insoluble"}
    ]},
    {"smiles": "Cc1ccc(NC(=O)c2ccc(CN3CCN(C)CC3)cc2)cc1Nc1nccc(-c2cccnc2)n1", "note": "[Imanitib]", "values": [
      {"measurement": "Effect of inducing apoptosis by combined use of Telomestatin with another antitumor substance", "setting": "K562 cells", "result": "act synergistically"}
    ]},
    {"smiles": "O=C1c2c(O)ccc(O)c2C(=O)c2c(NCCNCCO)ccc(NCCNCCO)c21", "note": "[Mitoxantrone]", "values": [
      {"measurement": "Effect of inducing apoptosis by combined use of Telomestatin with another antitumor substance", "setting": "K562 cells", "result": "act synergistically"}
    ]},
    {"smiles": "CC[C@]1(O)C[C@H]2CN(CCc3c([nH]c4ccccc34)[C@@](C(=O)OC)(c3cc4c(cc3OC)N(C=O)[C@H]3[C@@](O)(C(=O)OC)[C@H](OC(C)=O)[C@]5(CC)C=CCN6CC[C@]43[C@@H]65)C2)C1", "note": "[Vincristine]", "values": [
      {"measurement": "Effect of inducing apoptosis by combined use of Telomestatin with another antitumor substance", "setting": "K562 cells", "result": "act synergistically"}
    ]}
  ]
}
